Source: patent US12485187B2, “Method for improving retroviral transduction and gene editing in hematopoietic stem cells using clyclosporin H and UM171” (Ospedale San Raffaele S.R.L, priority 2017, dated 2025)

Experiments:
[1] = tested on: human HSPCs; assay: Colony-forming cell assay; assay type: cell-based
Method: Colony-forming cell assays were performed by plating 8×10^2 human HSPCs transduced in the presence of the different compounds in a methylcellulose-based medium (Methocult GF4434; Stem Cell Technologies). Fifteen days later colonies were scored by light microscopy for colony numbers and morphology. CFU-E and BFU-E were scored as erythroid colonies, while CFU-G, CFU-M and CFU-GM and CFU-GEMM were scored as myeloid colonies. Moreover, single colonies were plucked for molecular analysis.

[2] = tested on: human CD34+ HSPCs; conditions: for effect on LV transduction of combining the compound with CsH: hCB- and mPB-derived HSPC, LV MOI 1 or 10
[3] = tested on: CB-derived CD34+ HSPCs; conditions: Wang et al. 2014; cited from earlier work

| Structure (SMILES) | colony-forming capacity ([1]; mPB-CD34+ cells, IDUA-LV MOI 50, vs control) | effect on LV transduction of combining the compound with CsH [2] | colony-forming capacity ([1]; BM-derived CD34+ cells transduced with IDUA or ARSA LV) | VCN in vitro ([2]; BM-derived CD34+ cells, single hit IDUA/ARSA-LV vs two-hit standard (MOI 100)) | transduction efficiency of clinical-grade IDUA and ARSA-LV ([2]; BM-derived CD34+ cells, single hit vs one-hit control without drugs) | LV integration site profile in human HSPCs [3] |
| --- | --- | --- | --- | --- | --- | --- |
| CCCCC[C@H](O)/C=C/[C@H]1[C@H](O)CC(=O)[C@@H]1C/C=C\CCCC(=O)O [prostaglandin E2, Prostaglandin E2, reference compound] | No differences in colony-forming capacity | additive |  |  |  |  |
| CO[C@H]1C[C@@H]2CC[C@@H](C)[C@@](O)(O2)C(=O)C(=O)N2CCCC[C@H]2C(=O)O[C@H]([C@H](C)C[C@@H]2CC[C@@H](O)[C@H](OC)C2)CC(=O)[C@H](C)/C=C(\C)[C@@H](O)[C@@H](OC)C(=O)[C@H](C)C[C@H](C)/C=C/C=C/C=C/1C [rapamycin, Rapamycin, reference compound] |  | additive | no alterations in colony-forming capacity were observed | comparable to the two-hit gold standard | able to increase transduction efficiency | not to impact the LV integration site profile in human HSPCs |
